Assay [1] deals with cancer cells with KRAS G12C mutation. The conditions noted are these: WO 2014/152588 and Cancer Discov. 6 (3), 316-29, 2016; cited from earlier work.
For assay [2], the target named is G12C mutant of inactive KRAS (GDP) (Homo sapiens, UniProt P01116, G12C). Conditions: WO 2014/152588 and Cancer Discov. 6 (3), 316-29, 2016; cited from earlier work.
Assay [3] has as its system tumor-bearing mice expressing KRAS G12C mutation. Conditions: WO 2015/054572 and Cell. 172 (3), 578-89, 2018; cited from earlier work.
Another assay relates to NCI-H358 cells. In words: Growth inhibition activity on KRAS-G12C mutant cell line (NCI-H358) (in vitro). Conditions: Homo sapiens, 72 h, 3-day culture in the presence of the compound, CellTiter-Glo2.0. In kind it is cell-based. As to the method:
Test Example 3: A Measurement Test of Growth Inhibition Activity on KRAS-G12C Mutant Cell Line (NCI-H358) (In Vitro) NCI-H358 cells (ATCC, Cat#: CRL-5807), which are a KRAS-G12C mutant human lung cancer cell line, were suspended in a 10% fetal bovine serum-containing RPMI1640 medium (manufactured by Fujifilm Wako Pure Chemical Corporation.). The cell suspension was seeded into each well of a 384-well flat-bottom microplate and cultured in an incubator containing 5% CO2 gas at 37° C. for 1 day. The test compound was dissolved in DMSO and diluted with DMSO to give a concentration 500 times the final concentration. The solution of the test compound in DMSO was diluted with the medium used for suspending cells and added to each well of the cell-culture plate to give a DMSO final concentration of 0.2%, followed by culture in an incubator containing 5% CO2 gas at 37° C. for another 3 days. The cell count after 3-day culture in the presence of the compound was measured using CellTiter-Glo2.0 (manufactured by Promega Corporation) in accordance with the protocol recommended by Promega Corporation. The growth inhibition rate was calculated from the following equation, and the concentration of the test compound at which 50% inhibition was achieved (IC50 (nM)) was determined. […] Growth Inhibition Rate (%)=(C−T)/(C)×100 T: the emission intensity in a well into which a test compound was added. C: the emission intensity in a well into which a test compound was not added.
(In general: Cellular ATP, detected with luciferase, serves as a proxy for viable cell number.)

The next assay has as its target T1, KRAS G12C (Homo sapiens, UniProt P01116, G12C).
T1 construct: KRAS G12C (amino acid region: 1-169)
Briefly: Inhibitory activity on the KRAS G12C nucleotide (GDP-GTP) exchange reaction. Format: biochemical. The conditions noted are these: Bodipy FL GDP-bound KRAS G12C 25 nM; preincubation at 25° C. for 4 hours; SOS1 100 nM, GppNHp 1 μM, reaction for 30 minutes. The method, boiled down: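 Bodipy FL-GDP-loaded KRAS G12C (aa 1-169, 25 nM) preincubated with compound 4 h at 25 °C in pH 7.5 Tris buffer, 5% DMSO; exchange started with SOS1 (aa 564-1049, 100 nM) and 1 μM GppNHp for 30 min. Fluorescence change (ex 485/em 520 nm) normalized to DMSO and no-GppNHp controls; IC50 calculated.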

The target in the next assay is T2, G12C K-Ras4B (1-169) (Homo sapiens, UniProt P01116, G12C).
T2 construct: G12C K-Ras4B (1-169)
In words: Test of compounds to determine whether they bind to KRASG12C (LC-MS compound binding rate). The conditions noted are these: final compound concentration of 2 μM, 1 μM protein, 25° C. for 2 hours. As to the method: Test Example 1: A Test of Compounds to Determine Whether they Bind to KRASG12C
Test compounds were prepared in the form of a 10 mM DMSO solution.
Wt K-Ras4B (1-169) and G12C K-Ras4B (1-169) proteins were mixed and diluted with a buffer (1×TBS, 0.1 mM TCEP) to prepare individual 1 μM protein solutions. A 10 mM test compound was diluted tenfold with DMSO to make a 1 mM solution, and then diluted fivefold with DMSO to make a 200 μM solution. The 200 μM solution was further diluted fivefold to make a 40 μM solution. When the final compound concentration was […], 1 μL of a 200 μM test compound was added to 19 μL of a 1 μM protein solution. When the final compound concentration was 2 μM, 1 μL of a 40 μM test compound was added to 19 μL of a 1 μM protein solution. The mixtures were stored in an incubator at 25° C. for 2 hours, and 80 μL of a 1×TBS solution containing 0.2% formic acid was added thereto to end the reaction, followed by LC-MS measurement. LC-MS measurement was performed using Xevo G2-S Q-Tof manufactured by Waters, and reverse-phase chromatography was performed with a desalting column. A mass spectrum of positive ions was obtained by electrospray. For a mass spectrum, a spectrum of a polyvalent ion was collectively converted to a molecular weight by using OpenLynx software by the MaxEnt technique, and a compound binding rate was obtained from the ratio of a signal intensity that corresponds to the molecular weight of a protein to a signal intensity that corresponds to the molecular weight of a compound binding to the protein.
By obtaining the compound binding rate for wt K-Ras4B (1-169) and the compound binding rate for G12C K-Ras4B (1-169) at the same time, information of the selectivity for G12C K-Ras4B (1-169) was obtained at the same time.
The test compounds were measured at their final compound concentration of 2 μM. […] Almost none of the compounds of the disclosure bound to wt K-Ras4B (1-169). The “binding rate” (%) for each of wt K-Ras4B (1-169) and G12C K-Ras4B (1-169) refers to the ratio of the signal intensity of bound forms to the sum of the signal intensity of non-bound forms and the signal intensity of bound forms.

By IC50 is commonly meant the midpoint of a concentration-inhibition curve.

With `C=CC(=O)N1CC(N2CCN(C(=O)CNc3cc(C4(C)CC4)c(Cl)cc3O)CC2)C1` [ARS-853], the apoptosis induction entry in assay [1] is on record as “inducing apoptosis”. For the same compound, the “binding to KRAS G12C” value in assay [2] is “binds to the cysteine of the G12C mutant of inactive KRAS (GDP)”.

`C=CC(=O)N1CCN(c2ncnc3c(F)c(-c4c(O)cccc4F)c(Cl)cc23)CC1` [ARS-1620]: the antitumor action result in assay [3] is recorded as “exerts antitumor action”.

On to `C=CC(=O)N1CC(NC(=O)c2c(Cl)nc(CNc3n[nH]c4cc(Cl)c(C(C)(C)C)cc34)n2[C@@H]2CCN(CC(F)F)C2)C1` [Example 113, (R)-N-(1-acryloylazetidin-3-yl)-2-(((5-(tert-butyl)-6-chloro-1H-indazol-3-yl)amino)methyl)-4-chloro-1-(1-(2,2-difluoroethyl)pyrrolidin-3-yl)-1H-imidazole-5-carboxamide], for which the results for the IC50 with NCI-H358 cells and against KRAS G12C were 22 nM and 5 nM, respectively.

On to `C=CC(=O)N1CC(NC(=O)c2cnc(CNc3n[nH]c4cc(Cl)c(Br)cc34)n2C)C1` [Reference Example 1, N-(1-acryloylazetidin-3-yl)-2-(((5-bromo-6-chloro-1H-indazol-3-yl)amino)methyl)-1-methyl-1H-imidazole-5-carboxamide, reference compound], for which the IC50 in the assay on NCI-H358 cells and at KRAS G12C was over 10000 nM throughout. Also, on G12C K-Ras4B (1-169), the “binding rate for G12C K-Ras4B (1-169)” value was “E (a binding rate of less than 20% is rated “E.”)”.

Consider `C=CC(=O)N1CC(NC(=O)c2c(Cl)nc(CNc3n[nH]c4cc(Cl)c(C(C)(C)C)cc34)n2[C@H]2CCN(CC(F)F)C2)C1` [Example 115, (S)-N-(1-acryloylazetidin-3-yl)-2-(((5-(tert-butyl)-6-chloro-1H-indazol-3-yl)amino)methyl)-4-chloro-1-(1-(2,2-difluoroethyl)pyrrolidin-3-yl)-1H-imidazole-5-carboxamide], for which the IC50 stood at 56 nM in the assay on NCI-H358 cells and 7 nM against KRAS G12C.

These data come from patent publication US20230181536A1, “ANTICANCER COMBINATION THERAPY WITH N-(1-ACRYLOYL-AZETIDIN-3-YL)-2-((1H-INDAZOL-3-YL)AMINO)METHYL)-1H-IMIDAZOLE-5-CARBOXAMIDE INHIBITOR OF KRAS-G12C” (TAIHO PHARMACEUTICAL CO., LTD., priority 2020, published 2023).
